Source: PMC7022378, “Structural Analyses on the Deamidation of N-Terminal Asn in the Human N-Degron Pathway” (Biomolecules, 2020)
Each block holds one molecule with its values, some of them ahead of it.

Columns and labels:
NTAN1 (wild-type) = molecular target: T1, NTAN1 (wild-type) (Homo sapiens, UniProt Q96AB6); test: In vitro deamidation assay quantified by LC-MS, wild-type NTAN1; assay type: biochemical; conditions: 200 mM NaCl, 10 mM HEPES-NaOH (pH 7.0); for Deamidation activity on NXAAR peptides: 100 μM peptide, 37 °C, 1-20 min, three independent experiments; for Deamidation with 0.16 μM NTAN1: 0.16 μM NTAN1, 37 °C
T1 construct: The gene for full-length NTAN1 was cloned into pET-21a(+); made in house; host or cells: E. coli Rosetta 2(DE3)
T1 sequence (Q96AB6 1-310): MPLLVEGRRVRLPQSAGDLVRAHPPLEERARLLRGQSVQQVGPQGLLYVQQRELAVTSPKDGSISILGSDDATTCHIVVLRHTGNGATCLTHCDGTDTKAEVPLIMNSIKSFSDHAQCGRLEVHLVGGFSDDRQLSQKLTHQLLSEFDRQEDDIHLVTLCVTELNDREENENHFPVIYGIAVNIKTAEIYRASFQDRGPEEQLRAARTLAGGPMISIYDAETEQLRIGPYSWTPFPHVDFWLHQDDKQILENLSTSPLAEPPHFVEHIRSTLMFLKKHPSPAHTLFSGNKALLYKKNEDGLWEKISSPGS
Method: We synthesized codon-optimized NTAN1 gene of which sequence information was provided by Georgiou et al. for protein expression in Escherichia coli. The gene for full-length NTAN1 was cloned into pET-21a(+) (Novagen, Darmstadt, Germany) between Nde1 and Xho1 restriction sites to have C-terminal hexahistidine tag. NTAN1 was overexpressed in the Rosetta 2(DE3), E. coli strain (Novagen, Darmstadt, Germany). The transformed cells were grown in Luria-Bertani media containing ampicillin at 37 °C until the optical density at 600 nm reached 0.5 and protein expression was induced by 0.5 mM isopropyl β-D-1-thiogalactopyranoside. The cells were shake-incubated for additional for 16 h at 18 °C and harvested by centrifugation at 6000 × g for 10 min (Figure S1). The harvested cells were resuspended in a buffer containing 500 mM NaCl, 20 mM Tris-HCl (pH 7.5), 35 mM imidazole, and 1 mM phenylmethylsulfonyl fluoride and subsequently lysed by sonication. Lysed cells were centrifuged at 35,000 × g for 1 h. The resultant supernatant was filtered with 0.45 μm filter device (Sartorius, Göttingen, Germany) and loaded onto a 5-mL HiTrap Chelating HP column (GE Healthcare, Chicago, IL, USA) which had been pre-charged with Ni^2+ and equilibrated with a buffer containing 500 mM NaCl, 20 mM Tris-HCl (pH 7.5), and 35 mM imidazole. After nonspecifically bound proteins were eluted, the retained proteins were eluted by addition of an increasing gradient of a buffer containing 500 mM NaCl, 20 mM Tris-HCl (pH 7.5), and 1 M imidazole. The proteins were loaded onto a HiPrep Desalting 26/10 column (GE Healthcare, Chicago, IL, USA) and eluted with a buffer containing 50 mM NaCl and 20 mM Tris-HCl (pH 7.5) The eluates were loaded onto a HiTrap 5-mL Q HP column (GE Healthcare, Chicago, IL, USA) which had been equilibrated with a buffer containing 50 mM NaCl and 20 mM Tris-HCl (pH 7.5). After nonspecifically bound proteins were eluted, the retained proteins were eluted with addition of increasing gradient of a buffer containing 1 M NaCl and 20 mM Tris-HCl (pH 7.5). Finally, the proteins were concentrated, loaded onto a HiLoad 16/600 Superdex 200 pg column (GE Healthcare, Chicago, IL, USA), and eluted with a buffer containing 200 mM NaCl and 10 mM HEPES-NaOH (pH 7.0). Purity of the protein fractions was checked by sodium dodecyl sulfate-polyacrylamide gel electrophoresis after each purification step.
Peptides with Nt-Asn which mimic potential substrates of NTAN1 were synthesized: NRA, NRAA, NRAAA, NRQVA, NRQVAA, NRQVAAA, NFAAR, NLAAR, NRAAR, NAAAR, NNAAR, NPAAR, NGAAR, and NDAAR. Non-Nt-Asn peptides, QRAAA and VRAAA, were also synthesized. NTAN1 (at concentrations of 0.5 μM, 0.16 μM, or 0.04 μM) and the peptides (at a concentration of 100 μM) were mixed and incubated at 37 °C in a buffer containing 200 mM NaCl and 10 mM HEPES-NaOH (pH 7.0). The reactants sampled at various incubation time points (of 1, 2, 5, 10, and 20 min) were heat-inactivated at 95 °C for 10 min to stop further reaction. Subsequently, the samples were centrifuged at 20,000 × g and diluted 1/50 times with double-deionized water (DW) for liquid chromatography-mass spectrometry (LC-MS) analysis. The deamidation coefficient of peptides catalyzed by NTAN1 was assessed by the slope of exponential curve drawn from the concentration of the substrate over incubation time.
The peptides were quantified by an LC-MS system (1260 Infinity/6430 Triple Quad, Agilent Technologies) equipped with a binary pump (G1312B), a thermostated column compartment (G1316C), a thermostat (G1330B), and an autosampler (G1367E). Chromatographic separation was carried out by injecting an aliquot (2 µL) of analytical sample into a Kinetex C18 column (2.6 μm, 100 Å, 100 × 4.6 mm; Phenomenex, Torrance, CA, USA) with a C18 guard column (4 × 2.0 mm; Phenomenex, Torrance, CA, USA). The mobile phase consisted of acetonitrile and DW (30:70, v/v) with 0.2% (v/v) formic acid. […]

[1] = molecular target: T2, NTAN1 S254A mutant (human) (UniProt Q96AB6)
T2 sequence: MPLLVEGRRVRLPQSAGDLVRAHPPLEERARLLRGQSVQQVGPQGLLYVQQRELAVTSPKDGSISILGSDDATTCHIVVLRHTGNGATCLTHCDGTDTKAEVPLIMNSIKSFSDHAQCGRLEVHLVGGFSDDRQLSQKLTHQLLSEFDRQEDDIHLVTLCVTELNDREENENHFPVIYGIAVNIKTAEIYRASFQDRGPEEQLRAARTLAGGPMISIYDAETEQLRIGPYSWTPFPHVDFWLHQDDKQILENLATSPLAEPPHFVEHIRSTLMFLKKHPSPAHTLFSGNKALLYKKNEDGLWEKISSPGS

[2] = molecular target: T3, N-terminal asparagine amidohydrolase 1 (NTAN1) C75S mutant (human, UniProt Q96AB6 1-310, C75S); test: SPR; NTAN1 C75S amine-coupled to a CM5 chip (3000 RU), Biacore T200; peptides at 1.95-62.50 μM injected for 120 s, 30 μL/min; 150 mM NaCl, 10 mM HEPES-NaOH pH 7.2, 0.1 mM TCEP, 0.001% polysorbate 20; 1:1 Langmuir model; conditions: both partners purified
T3 construct: N-terminal asparagine amidohydrolase 1 (NTAN1), human, full length, 310 residues; codon-optimized synthetic gene in pET-21a(+); catalytic Cys75 changed to Ser; C75S is not in the list of mutants in section 2.2; No step that cleaves the tag is described; source: E. coli Rosetta 2(DE3), purified as for NTAN1 (Ni2+ chelating, Q anion exchange, Superdex 200)
T3 sequence (looked up): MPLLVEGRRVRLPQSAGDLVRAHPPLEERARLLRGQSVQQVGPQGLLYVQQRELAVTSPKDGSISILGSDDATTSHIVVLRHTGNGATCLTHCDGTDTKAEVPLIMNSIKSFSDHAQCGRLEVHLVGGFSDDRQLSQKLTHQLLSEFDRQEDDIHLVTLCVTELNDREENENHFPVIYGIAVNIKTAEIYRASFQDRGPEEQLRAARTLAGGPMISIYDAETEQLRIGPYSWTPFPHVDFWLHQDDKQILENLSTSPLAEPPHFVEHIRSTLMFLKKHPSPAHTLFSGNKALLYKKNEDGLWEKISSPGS

[3] = molecular target: T3, N-terminal asparagine amidohydrolase 1 …; test: crystal structure; crystals of NTAN1 C75S soaked in reservoir solution with 10 mM synthetic peptide for 16 hr; two molecules in the asymmetric unit; conditions: both partners purified
[4] = 0.5 μM NTAN1 (Figure 2d; NNAAR also at 0.04 μM, Figure 2c)

Molecule: NDAAR [NXAAR substrate peptide, second-position Asp]
- Deamidation activity on NXAAR peptides (NTAN1 (wild-type); [4]): low deamidation activities

Molecule: NFAAR [NXAAR substrate pentapeptide, second-position Phe]
- Deamidation activity on NXAAR peptides (NTAN1 (wild-type); 0.04 μM NTAN1 (Figure 2c)): most efficiently deamidated

Molecule: NGAAR [NXAAR substrate peptide, second-position Gly]
- Deamidation activity on NXAAR peptides (NTAN1 (wild-type); [4]): low deamidation activities

Molecule: NLAAR [NXAAR substrate pentapeptide, second-position Leu]
- Deamidation activity on NXAAR peptides (NTAN1 (wild-type); 0.04 μM NTAN1 (Figure 2c)): most efficiently deamidated

Molecule: NNAAR [NXAAR substrate peptide, second-position Asn]
- Deamidation activity on NXAAR peptides (NTAN1 (wild-type); [4]): low deamidation activities

Molecule: NPAAR [NXAAR substrate peptide, second-position Pro]
- Deamidation activity on NXAAR peptides (NTAN1 (wild-type); [4]): low deamidation activities

Molecule: NRAAR [NXAAR substrate peptide, second-position Arg]
- Deamidation activity on NXAAR peptides (NTAN1 (wild-type); 0.04 μM NTAN1 (Figure 2c)): moderate deamidation activity

Molecule: NRAAA [NRAAA peptide]
- in vitro deamidation of the NRAAA peptide, LC-MS, deamidation rate against wild-type NTAN1 (fold lower than wild type) [1]: 3

B1: NLAAR peptide (peptide)
peptide: NLAAR
notes: model substrate peptide with N-terminal Asn; also called NLAAR pentapeptide; source: synthetic peptide
- Kd [2]: 26.8 nM

B3: NAAAR peptide (peptide)
peptide: NAAAR
notes: model substrate peptide with N-terminal Asn; source: synthetic peptide
- Kd [2]: 4670 nM

Next, values leading:

- Deamidation with 0.16 μM NTAN1 (NTAN1 (wild-type)): deamidated too rapidly
Molecule: NRQVA [synthesized modified Nt-Asn peptide, model substrate of NTAN1]

- Deamidation with 0.16 μM NTAN1 (NTAN1 (wild-type)): deamidated too rapidly
Molecule: NRQVAA [synthesized modified Nt-Asn peptide, model substrate of NTAN1]

- Deamidation with 0.16 μM NTAN1 (NTAN1 (wild-type)): deamidated too rapidly
Molecule: NRQVAAA [synthesized modified Nt-Asn peptide, model substrate of NTAN1]

- binding result [3]: binds
B2: NFAAR peptide (peptide)
peptide: NFAAR
notes: model substrate peptide with N-terminal Asn; also called NFAAR pentapeptide; source: synthetic peptide
